{"source": "patent US20240114949A1", "about": "“AEROSOLIZABLE MATERIAL” (Nicoventures Trading Limited, priority 2019, published 2024)", "assay": "Solubility of cannabidiol isolate in glycerol/propylene glycol/water solutions", "assay_type": "physicochemical", "conditions": "Isolate 10 mg/mL"}
{"smiles": "C=C(C)[C@@H]1CCC(C)=C[C@H]1c1c(O)cc(CCCCC)cc1O", "note": "[Isolate, cannabidiol]", "values": [{"measurement": "Soluble", "setting": "Glycerol 36, PG 52.09, Water 11 (w/w)", "result": "YES"}, {"measurement": "Soluble", "setting": "Glycerol 36, PG 53.09, Water 10 (w/w)", "result": "YES"}, {"measurement": "soluble at 10 mg/mL (yes/no)", "setting": "glycerol/propylene glycol/water solution, organic solvent or mixture, Glycerol 36, PG 47.09, Water 16 (w/w)", "result": "< 10000", "unit": "µg/mL"}]}
